This is an account of results in US20200179319A1, “PHARMACEUTICAL FORMULATIONS AND THEIR USE” (Signum Biosciences, Inc., priority 2016, published 2020).

Series [1] is described as follows: Screening Study (Example 5): sulfoxide formed in API solution with each agent, HPLC. The class given is physicochemical. The method, then: A buffer solution was prepared by adding 0.72 g of Na2HPO4, 0.24 g KH2PO4 and 500 mL of deionized water into a container and mixing. The pH of the mixture was adjusted to 7.4 to 7.5 using NaOH and H3PO4.
(§1) A solution of each agent in the table below was prepared by adding 500 mg or each agent into a 25 mL volumetric flask and filling the flask to volume by the addition of the prepared buffer solution.
A 6% solution of API was prepared by adding 3.0 g the disodium salt of 4-(((R)-1-carboxy-2-(((2E,6E)-3,7,11-trimethyldodeca-2,6,10-trien-1-yl)thio)ethyl)amino)-4-oxobutanoic acid to a 50 mL volumetric flask filling the flask to volume by the addition of argon-sparged methanol, followed by mixing.
(§2) A screen was performed for each agent as follows: (1) 2.5 mL of the stock solution of API and 2.5 mL of each agent was added into scintillation vial, the vial was capped and the contents were mixed (repeated three times for each agent); and (2) allowing each resulting mixture to sit for 24 hours exposed to air at room temperature and not protected from light. A blank solution was prepared (3×) by adding buffer solution into the 100 mL volumetric flask in place of the agent and was stored under the same conditions as the other samples, 24 hours exposed to air at room temperature and not protected from light. After 24 hours, the contents of each vial were transferred to a 100 mL volumetric flask and each volumetric flask was filled to volume by the addition of methanol, and an aliquot of each mixture was removed and analyzed by HPLC.
The area of the sulfoxide of 4-(((R)-1-carboxy-2-(((2E,6E)-3,7,11-trimethyldodeca-2,6,10-trien-1-yl)thio)ethyl)amino)-4-oxobutanoic acid produced in each solution was calculated as follows: % area sulfoxide=Rsulfoxide/(Rparent+Rsulfoxide), wherein Rsuffoxide=the area under the response of the sulfoxide in the HPLC trace, and Rparent=the area under the response of 4-(((R)-1-carboxy-2-(((2E,6E)-3,7,11-trimethyldodeca-2,6,10-trien-1-yl)thio)ethyl)amino)-4-oxobutanoic acid in the HPLC trace. The control sample in Table 8 contained no agent, was stored at 5° C. and protected from light.

Series [2] in a line: Screening Study (Example 3): sulfoxide formed in API solution with each agent, HPLC. Conditions: 24 hours exposed to air at room temperature, not protected from light. The class given is physicochemical. The method, then: A buffer solution was prepared by adding 0.72 g of Na2HPO4, 0.24 g KH2PO4 and 500 mL of deionized water into a container and mixing.
as §1
A 6% solution of API was prepared by adding 3.0 g the disodium salt of 4-(((R)-1-carboxy-2-(((2E,6E)-3,7,11-trimethyldodeca-2,6,10-trien-1-yl)thio)ethyl)amino)-4-oxobutanoic acid to a 50 mL volumetric flask and filling the flask to volume by the addition of methanol, followed by mixing.
as §2, with “a 100 mL volumetric flask” for “scintillation vial, the vial was capped”, “agent.” for “agent and was stored under the same conditions as the other samples, 24 hours exposed to air at room temperature and not protected from light.”, “hours,” for “hours, the contents of each vial were transferred to a 100 mL volumetric flask and”
The area of the sulfoxide of 4-(((R)-1-carboxy-2-(((2E,6E)-3,7,11-trimethyldodeca-2,6,10-trien-1-yl)thio)ethyl)amino)-4-oxobutanoic acid produced in each solution was calculated as follows: % area sulfoxide=Rsulfoxide/(Rparent+Rsulfoxide), wherein Rsuffoxide=the area under the response of the sulfoxide in the HPLC trace, and Rparent=the area under the response of 4-(((R)-1-carboxy-2-(((2E,6E)-3,7,11-trimethyldodeca-2,6,10-trien-1-yl)thio)ethyl)amino)-4-oxobutanoic acid in the HPLC trace.

On to `O=S([O-])([O-])=S.[Na+].[Na+]` [Sodium thiosulfate], for which the “(% area sulfoxide for each agent/% area sulfoxide in Blank)” value was found to be 0.96 in series [1] (24 hours exposed to air at room temperature, not protected from light) and 0.92 in series [2]. Moreover, the “% area sulfoxide relative to % area Control” value was 0.158 in series [1] (Control: no agent, stored at 5° C. and protected from light); 0.055 in series [2]. Also, the “Average % area sulfoxide for 3 runs per agent” value is 1.117% in series [1] (pH 7.4 to 7.5 buffer, API disodium salt solution plus agent, 24 hours exposed to air at room temperature, not protected from light) and 1.032% in series [2] (API disodium salt solution plus agent).
